molecular target: T1, 5-HT1A receptor (Rattus norvegicus, UniProt P19327); experiment: Affinity for 5-HT1A receptor: inhibition of [3H]8-OH-DPAT binding to rat cerebral cortex membranes; settings: [3H]8-OH-DPAT (1 nM), 30 min at 25° C., Tris-HCl 50 mM, pH=7.4
T1 construct: from tissue; host or cells: cerebral cortex membranes of male Sprague Dawley rats
T1 sequence (P19327 1-422): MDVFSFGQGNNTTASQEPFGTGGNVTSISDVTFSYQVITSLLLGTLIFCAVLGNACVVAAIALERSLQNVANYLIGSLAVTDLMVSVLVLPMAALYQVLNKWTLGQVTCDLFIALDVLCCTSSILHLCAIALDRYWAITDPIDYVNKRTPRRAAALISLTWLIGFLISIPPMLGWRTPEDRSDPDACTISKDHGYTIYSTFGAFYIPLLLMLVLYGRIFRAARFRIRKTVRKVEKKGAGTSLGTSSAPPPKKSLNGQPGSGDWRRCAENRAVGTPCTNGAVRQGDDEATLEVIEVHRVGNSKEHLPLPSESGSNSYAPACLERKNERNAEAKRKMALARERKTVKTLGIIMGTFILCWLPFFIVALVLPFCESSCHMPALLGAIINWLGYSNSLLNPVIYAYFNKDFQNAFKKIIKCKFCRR
Method: The affinity of the compounds for serotonergic 5-HT1A receptors is determined by measuring the inhibition of [3H]8-hydroxy-2-(di-n-propylaminotetralin ([3H]8-OH-DPAT) bound to the cerebral cortex of the rat, according to the method of Peroutka and his coworkers [(J. Neurochem., 47, 529 (1986)].
Cerebral cortices of male Sprague Dawley rats are homogenised in Tris-HCl 50 mM, pH=7.4 and centrifuged at 40,000 g for 10 min at 4° C. Pellets are resuspended in the same buffer and incubated for 10 min at 37° C., and the homogenised products are centrifuged again at 40,000 g for 10 min at 4° C.
Competitive inhibition tests of [3H]8-OH-DPAT binding are carried out three times with unlabelled competitors, with concentrations between 100 pM and 100 μM. Cerebral cortex membranes of rats (10 mg wet weight/ml) are incubated with [3H]8-OH-DPAT (1 nM) for 30 min at 25° C. in Tris-HCl 50 mM, pH=7.4 containing 4 mM of CaCl2, […] of paragyline and 0.1% of ascorbic acid.
The bound [3H]8-OH-DPAT is separated from free [3H]8-OH-DPAT by immediate filtration by means of Whatman GF/B glass fibre filters using a Brandel cell recovery device. The filters are washed three times with the same buffer at 0-4° C. and their radioactivity is studied by means of a liquid scintillation spectrometer.
The specific binding is obtained by subtracting the binding determined in the presence of […] of 8-OH-DPAT from the total binding. The characteristics of the binding are analysed by iterative analysis of the non-linear regression by computer, using the Ligand program [Munson and Rodbard, Anal. Biochem., 107, 220 (1980)].

Row | Structure (SMILES) | Ki [nM]
1 | COc1ccccc1OCCNCCCCC(=O)NC(C)(C)C [Compound 1, N-tert-butyl-5-[{2-(2-methoxyphenoxy)ethyl}amino]pentanamide] | 0.54
2 | COc1ccccc1OCCNCCCCC(=O)NC1CCCCC1 [Compound 2, N-cyclohexyl-5-[{2-(2-methoxyphenoxy)ethyl}amino]pentanamide] | 0.19
3 | COc1ccccc1OCCNCCCCC(=O)NCC(C)(C)C [Compound 3, N-neopentyl-5-[{2-(2-methoxyphenoxyl)ethyl}amino]pentanamide] | 0.32
4 | COc1ccccc1OCCNCCCCC(=O)NC1CCCC1 [Compound 4, N-cyclopentyl-5-[{2-(2-methoxyphenoxy)ethyl}amino]pentanamide] | 0.29
5 | COc1ccccc1OCCNCCCCC(=O)NC1CCCCCC1 [Compound 5, N-cycloheptyl-5-[{2-(2-methoxyphenoxy)ethyl}amino]pentanamide] | 0.098
6 | CC(C)(C)CNC(=O)CCCCNCCOc1cccc(NC(N)=O)c1 [Compound 9, N-neopentyl-5-[{2-(3-(aminocarbonylamino)phenoxy)ethyl}-amino]pentanamide] | 0.41

Now from value to compound:

Row | Ki [nM] | Structure (SMILES)
7 | 0.13 | NC(=O)Nc1cccc(OCCNCCCCC(=O)NC2CCCCCC2)c1 [Compound 10, N-cyclcoheptyl-5-[{2-(3-(aminocarbonylamino)phenoxy)ethyl}amino]pentanamide]
8 | 0.37 | CC(=O)Nc1cccc(OCCNCCCCC(=O)NC2CCCCC2)c1 [Compound 11, N-cyclohexyl-5-[{2-(3-(methylcarbonylamino)phenoxy)ethyl}amino]pentanamide]
9 | 0.88 | CC(=O)Nc1cccc(OCCNCCCCC(=O)NCC(C)(C)C)c1 [Compound 12, N-neopentyl-5-[{2-(3-(methylcarbonylamino)phenoxy)ethyl}-amino]pentanamide]
10 | 0.84 | COC(=O)Nc1cccc(OCCNCCCCC(=O)NCC(C)(C)C)c1 [Compound 13, N-neopentyl-5-[{2-(3-(methoxycarbonylamino)phenoxy)ethyl}amino]pentanamide]

— patent publication US5998666A, “Phenoxyethylamine derivatives, method of preparation, application as medicine and pharmaceutical compositions containing same” (Societe de Conseils de Recherches Et d'Applications …, priority 1996, dated 1999)
